Assay results published in PubChem BioAssay (NCI).
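A five-concentration, 48-hour dose response in 96-well plates underlies each endpoint, interpolated linearly between surrounding concentrations. GI50: concentration for 50% inhibition of growth. At the TGI there is no net growth.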

How the values were obtained:
Assay in all cases: NCI tumour cell line growth inhibition, 48 h
SK-OV-3 ovarian = system: SK-OV-3 ovarian
MDA-MB-435 = system: MDA-MB-435
OVCAR-5 ovarian = system: OVCAR-5 ovarian
NCI-H226 lung = system: NCI-H226 lung
ACHN renal = system: ACHN renal
UO-31 renal = system: UO-31 renal
SK-MEL-5 melanoma = system: SK-MEL-5 melanoma
HS 578T breast = system: HS 578T breast
SF-268 CNS = system: SF-268 CNS
SNB-75 CNS = system: SNB-75 CNS
SK-MEL-28 melanoma = system: SK-MEL-28 melanoma
HCC-2998 colon = system: HCC-2998 colon
SF-539 CNS = system: SF-539 CNS
SF-295 CNS = system: SF-295 CNS
IGROV1 ovarian = system: IGROV1 ovarian
NCI-H460 lung = system: NCI-H460 lung
CAKI-1 renal = system: CAKI-1 renal
HT29 colon = system: HT29 colon
SR leukemia = system: SR leukemia
UACC-62 melanoma = system: UACC-62 melanoma
HL-60(TB) leukemia = system: HL-60(TB) leukemia
HCT-15 colon = system: HCT-15 colon
NCI-H522 lung = system: NCI-H522 lung
CCRF-CEM leukemia = system: CCRF-CEM leukemia
MDA-MB-231 breast = system: MDA-MB-231 breast
MCF7 breast = system: MCF7 breast
RPMI-8226 leukemia = system: RPMI-8226 leukemia
PC-3 prostate = system: PC-3 prostate
K-562 leukemia = system: K-562 leukemia
COLO 205 colon = system: COLO 205 colon
EKVX NSCLC = system: EKVX NSCLC
M14 melanoma = system: M14 melanoma
UACC-257 melanoma = system: UACC-257 melanoma
SNB-19 CNS = system: SNB-19 CNS
MOLT-4 leukemia = system: MOLT-4 leukemia
MALME-3M melanoma = system: MALME-3M melanoma
OVCAR-3 ovarian = system: OVCAR-3 ovarian
NCI-H23 lung = system: NCI-H23 lung
OVCAR-8 ovarian = system: OVCAR-8 ovarian
SK-MEL-2 melanoma = system: SK-MEL-2 melanoma
HOP-92 NSCLC = system: HOP-92 NSCLC
A549 NSCLC = system: A549 NSCLC
NCI/ADR-RES ovarian = system: NCI/ADR-RES ovarian
786-0 renal = system: 786-0 renal
TK-10 renal = system: TK-10 renal
RXF 393 renal = system: RXF 393 renal
BT-549 breast = system: BT-549 breast
HOP-62 NSCLC = system: HOP-62 NSCLC
SW-620 colon = system: SW-620 colon
U251 CNS = system: U251 CNS
OVCAR-4 ovarian = system: OVCAR-4 ovarian
HCT-116 colon = system: HCT-116 colon
KM12 colon = system: KM12 colon
LOX IMVI melanoma = system: LOX IMVI melanoma
DU-145 prostate = system: DU-145 prostate

N=C(N)c1ccc(-c2ccc(-c3ccc(Cl)cc3Cl)o2)cc1
GI50 (SK-OV-3 ovarian): 1620 nM | TGI (SK-OV-3 ovarian): 3.23 µM | GI50 (MDA-MB-435): 1700 nM | TGI (MDA-MB-435): 3.09 µM | GI50 (OVCAR-5 ovarian): 1530 nM | TGI (OVCAR-5 ovarian): 2950 nM | GI50 (NCI-H226 lung): 1820 nM | TGI (NCI-H226 lung): 4.28 µM | GI50 (ACHN renal): 1680 nM | TGI (ACHN renal): 3.06 µM | GI50 (UO-31 renal): 1670 nM | TGI (UO-31 renal): 3.18 µM | GI50 (SK-MEL-5 melanoma): 1740 nM | TGI (SK-MEL-5 melanoma): 3.13 µM | GI50 (HS 578T breast): 2130 nM | TGI (HS 578T breast): 4.99 µM | GI50 (SF-268 CNS): 2030 nM | TGI (SF-268 CNS): 4.65 µM | GI50 (SNB-75 CNS): 1400 nM | TGI (SNB-75 CNS): 2730 nM | GI50 (SK-MEL-28 melanoma): 1610 nM | TGI (SK-MEL-28 melanoma): 3.03 µM

Cc1cccc(NS(=O)(=O)c2ccc(N=Nc3c(O)c(C(=O)O)cc4ccccc34)cc2)n1
TGI (HCC-2998 colon): > 100 µM | TGI (SF-539 CNS): > 100 µM | TGI (SF-295 CNS): > 100 µM | TGI (IGROV1 ovarian): > 100 µM | TGI (NCI-H460 lung): > 100 µM | TGI (CAKI-1 renal): > 100 µM | TGI (HT29 colon): > 100 µM | TGI (SK-OV-3 ovarian): > 100 µM | TGI (MDA-MB-435): > 100 µM | TGI (SR leukemia): > 100 µM | TGI (UACC-62 melanoma): > 100 µM | TGI (HL-60(TB) leukemia): > 100 µM | TGI (HCT-15 colon): > 100 µM | TGI (NCI-H522 lung): > 100 µM | TGI (CCRF-CEM leukemia): > 100 µM | TGI (MDA-MB-231 breast): > 100 µM | TGI (MCF7 breast): > 100 µM | TGI (OVCAR-5 ovarian): > 100000 nM | TGI (RPMI-8226 leukemia): > 100 µM | TGI (PC-3 prostate): > 100 µM | TGI (NCI-H226 lung): > 100 µM | TGI (K-562 leukemia): > 100 µM | TGI (COLO 205 colon): > 100 µM | TGI (EKVX NSCLC): > 100 µM | TGI (M14 melanoma): > 100 µM | TGI (UACC-257 melanoma): > 100 µM | TGI (SNB-19 CNS): > 100 µM | TGI (MOLT-4 leukemia): > 100 µM | TGI (MALME-3M melanoma): > 100 µM | TGI (ACHN renal): > 100 µM | TGI (OVCAR-3 ovarian): > 100 µM | TGI (UO-31 renal): > 100 µM | TGI (NCI-H23 lung): > 100 µM | TGI (OVCAR-8 ovarian): > 100 µM | TGI (SK-MEL-2 melanoma): > 100 µM | TGI (HOP-92 NSCLC): > 100 µM | TGI (SK-MEL-5 melanoma): > 100 µM | TGI (HS 578T breast): > 100 µM | TGI (A549 NSCLC): > 100 µM | TGI (NCI/ADR-RES ovarian): > 100 µM | TGI (786-0 renal): > 100 µM | TGI (SF-268 CNS): > 100 µM | TGI (SNB-75 CNS): > 100000 nM | TGI (TK-10 renal): > 100 µM | TGI (SK-MEL-28 melanoma): > 100 µM | TGI (RXF 393 renal): > 100 µM | TGI (BT-549 breast): > 100 µM | TGI (HOP-62 NSCLC): > 100 µM | TGI (SW-620 colon): > 100 µM | TGI (U251 CNS): > 100 µM | TGI (OVCAR-4 ovarian): > 100 µM | TGI (HCT-116 colon): > 100 µM | TGI (KM12 colon): > 100 µM

COc1ccc(-n2nnc3c(sc4ccccc43)c2=O)cc1
GI50 (HCC-2998 colon): > 100 µM | TGI (HCC-2998 colon): > 100 µM | GI50 (LOX IMVI melanoma): > 100 µM | TGI (LOX IMVI melanoma): > 100 µM | GI50 (MDA-MB-435): > 100000 nM | TGI (MDA-MB-435): > 100 µM | GI50 (UACC-62 melanoma): > 100 µM | TGI (UACC-62 melanoma): > 100 µM | GI50 (HL-60(TB) leukemia): > 100 µM | TGI (HL-60(TB) leukemia): > 100 µM | GI50 (HCT-15 colon): > 100 µM | TGI (HCT-15 colon): > 100 µM | GI50 (NCI-H522 lung): > 100 µM | TGI (NCI-H522 lung): > 100 µM | GI50 (MCF7 breast): > 100 µM | TGI (MCF7 breast): > 100 µM | GI50 (RPMI-8226 leukemia): > 100 µM | TGI (RPMI-8226 leukemia): > 100 µM | GI50 (PC-3 prostate): > 100 µM | TGI (PC-3 prostate): > 100 µM | GI50 (K-562 leukemia): > 100 µM | TGI (K-562 leukemia): > 100 µM | GI50 (COLO 205 colon): > 100 µM | TGI (COLO 205 colon): > 100 µM | GI50 (M14 melanoma): > 100 µM | TGI (M14 melanoma): > 100 µM | GI50 (UACC-257 melanoma): > 100 µM | TGI (UACC-257 melanoma): > 100 µM | GI50 (MOLT-4 leukemia): > 100 µM | TGI (MOLT-4 leukemia): > 100 µM | GI50 (DU-145 prostate): > 100 µM | TGI (DU-145 prostate): > 100 µM | GI50 (NCI-H23 lung): > 100 µM | TGI (NCI-H23 lung): > 100 µM | GI50 (SK-MEL-2 melanoma): > 100 µM | TGI (SK-MEL-2 melanoma): > 100 µM | GI50 (SK-MEL-5 melanoma): > 100000 nM | TGI (SK-MEL-5 melanoma): > 100 µM | GI50 (NCI/ADR-RES ovarian): > 100 µM | TGI (NCI/ADR-RES ovarian): > 100 µM | GI50 (786-0 renal): 3.61 µM | TGI (786-0 renal): > 100 µM | GI50 (SF-268 CNS): > 100000 nM | TGI (SF-268 CNS): > 100 µM | GI50 (SK-MEL-28 melanoma): > 100000 nM | TGI (SK-MEL-28 melanoma): > 100 µM | GI50 (BT-549 breast): > 100 µM | TGI (BT-549 breast): > 100 µM | GI50 (SW-620 colon): > 100 µM | TGI (SW-620 colon): > 100 µM | GI50 (KM12 colon): > 100 µM | TGI (KM12 colon): > 100 µM
